ChEMBL document CHEMBL1122390, “2-benzazepines. 5. Synthesis of pyrimido[5,4-d][2]benzazepines and their evaluation as anxiolytic agents” (J Med Chem, 1983)

Assays:
[1] = target: GABA-A receptor; anion channel; test: Binding affinity measured by [3H]diazepam binding assay in rat
Mus musculus [2] = test: Effective dose required for anxiolytic activity in mice when administered perorally (Antipentylene tetrazole test); format: functional; conditions: po
Mus musculus [3] = test: Effective dose required for anxiolytic activity in mice when administered perorally (Inclined screen test); format: functional; conditions: po
Mus musculus [4] = test: Effective dose required for anxiolytic activity in mice when administered perorally (Rotarod test); format: functional; conditions: po
Felis catus [5] = test: Minimum effective dose required for drug induced ataxia (observable symptomatology) in cat when administered perorally.; format: functional; conditions: po, read-out: MED
Monkey [6] = test: Minimum effective dose required for anticonflict effect in monkey when administered perorally; format: functional; conditions: Cercopithecidae, in Primates, po; read-out: MED
Monkey [7] = test: Highest dose required for depressant effect when administered perorally; format: functional, Cercopithecidae
Mus musculus [8] = test: (§1) Effective dose required for ethanol interaction in mouse when administered perorally; format: functional; conditions: po
Rattus norvegicus [9] = test: Lowest dose required for depressant effect (significant decrease in unpunished responding) in rat when administered perorally; format: functional
Rattus norvegicus [10] = test: Minimum effective dose required for anticonflict effect in rat when administered perorally; format: functional; conditions: po, read-out: MED
Mus musculus [11] = test: Effective dose required for anxiolytic activity in mice when administered perorally ( Rotarod test); format: functional; conditions: po
Felis catus [12] = test: Minimum effective dose required for drug induced ataxia (observable symptomatology) in cat when administered perorally; format: functional; conditions: po, read-out: MED
Mus musculus [13] = test: as §1; conditions: po

Structure (SMILES) | IC50 [1] | ED50 (Mus musculus [2]) | ED50 (Mus musculus [3]) | ED50 (Mus musculus [4]) | other results
Cc1ncc2c(n1)-c1ccc(Cl)cc1C(c1ccccc1Cl)=[N+]([O-])C2 | 15 nM | 0.72 mg/kg | > 400 mg/kg | 6.3 mg/kg | –
Nc1ncc2c(n1)-c1ccccc1C(c1ccccc1)=NC2 | 60 nM | 17 mg/kg | – | – | –
Cc1ncc2c(n1)-c1ccc(Cl)cc1C(c1ccccc1Cl)N(C)C2 (stereo not drawn) | 25 nM | 7.7 mg/kg | > 400 mg/kg | 74 mg/kg | –
Nc1ncc2c(n1)-c1ccc(Cl)cc1C(c1ccccc1Cl)=NC2 | 2.6 nM | 0.07 mg/kg | > 400 mg/kg | 1.4 mg/kg | –
Fc1ccccc1C1=NCc2cnc(Cl)nc2-c2ccc(Cl)cc21 | 5.3 nM | 4.7 mg/kg | > 400 mg/kg | 24 mg/kg | –
CC1=NCC2CNC(c3ccccc3Cl)c3cc(Cl)ccc3C2=N1 (stereo not drawn) | 140 nM | 34 mg/kg | 200 mg/kg | 109 mg/kg | –
CNC(=O)Cc1ncc2c(n1)-c1ccc(Cl)cc1C(c1ccccc1F)=NC2 | 7.6 nM | 2.3 mg/kg | > 400 mg/kg | 4 mg/kg | –
[O-][N+]1=C(c2ccccc2F)c2cc(Cl)ccc2-c2nc(S)ncc2C1 | 490 nM | > 100 mg/kg | > 400 mg/kg | > 200 mg/kg | –
Cc1nc2c(c[n+]1[O-])C[N+]([O-])=C(c1ccccc1Cl)c1cc(Cl)ccc1-2 | 31 nM | 2.7 mg/kg | 240 mg/kg | 5.6 mg/kg | –
Cc1ncc2c(n1)-c1ccc(Cl)cc1C(c1ccccc1Cl)NC2 (stereo not drawn) | 30 nM | 2.3 mg/kg | > 400 mg/kg | 18 mg/kg | –
[O-][N+]1=C(c2ccccc2Cl)c2cc(Cl)ccc2-c2ncncc2C1 | 39 nM | 0.87 mg/kg | 141 mg/kg | 4.9 mg/kg | –
CNc1ncc2c(n1)-c1ccc(Cl)cc1C(c1ccccc1F)=NC2 | 2.8 nM | 0.58 mg/kg | > 400 mg/kg | 4 mg/kg | –
Cc1ncc2c(n1)-c1ccccc1C(c1ccccc1)=NC2 | 54 nM | 84 mg/kg | – | 200 mg/kg | –
Nc1ncc2c(n1)-c1ccc(Cl)cc1C(c1ccccc1F)=[N+]([O-])C2 | 38 nM | – | – | – | –
Fc1ccccc1C1=NCc2cncnc2-c2ccc(Cl)cc21 | 3.4 nM | 0.37 mg/kg | > 400 mg/kg | 0.8 mg/kg | –
CN1CCN(c2ncc3c(n2)-c2ccc(Cl)cc2C(c2ccccc2F)=NC3)CC1 | 7.1 nM | 1.2 mg/kg | > 400 mg/kg | 16 mg/kg | –
CN(C)CCCNc1ncc2c(n1)-c1ccc(Cl)cc1C(c1ccccc1F)=NC2 | 2.3 nM | 1.6 mg/kg | 187 mg/kg | 16 mg/kg | –

Structure (SMILES) | IC50 [1] | ED50 (Mus musculus [2]) | ED50 (Mus musculus [3]) | ED50 (Mus musculus [4]) | other results
CSc1ncc2c(n1)-c1ccc(Cl)cc1C(c1ccccc1Cl)=NC2 | 18.5 nM | 13 mg/kg | > 400 mg/kg | 33 mg/kg | –
Clc1ccc2c(c1)C(c1ccccc1Cl)NCc1cncnc1-2 (stereo not drawn) | 54 nM | 6.9 mg/kg | > 400 mg/kg | 22 mg/kg | –
Cc1ncc2c(n1)-c1ccc(Cl)cc1C(c1ccccc1F)=NC2 | 3.1 nM | 6.6 mg/kg | > 400 mg/kg | 7.8 mg/kg | –
Cc1ncc2c(n1)-c1ccc(Cl)cc1C(c1ccccc1)=NC2 | 17 nM | 9.3 mg/kg | – | – | –
Clc1ccc2c(c1)C(c1ccccc1Cl)=NCc1cncnc1-2 | 2.8 nM | 0.59 mg/kg | 215 mg/kg | 3.6 mg/kg | minimal effective dose (Felis catus [5]): 0.5 mg/kg; minimal effective dose (Monkey [6]): 0.04 mg/kg; HED (Monkey [7]): 5 mg/kg; ED50 (Mus musculus [8]): 2.2 mg/kg; DUR (Rattus norvegicus [9]): 2.5 mg/kg; minimal effective dose (Rattus norvegicus [10]): 0.31 mg/kg
COc1ncc2c(n1)-c1ccc(Cl)cc1C(c1ccccc1F)=NC2 | 3.5 nM | 2.6 mg/kg | > 400 mg/kg | 9 mg/kg | –
[O-][N+]1=C(c2ccccc2F)c2cc(Cl)ccc2-c2ncncc2C1 | 41 nM | 3.9 mg/kg | 277 mg/kg | 3.95 mg/kg | –
Nc1ncc2c(n1)-c1ccc(Cl)cc1C(c1ccccc1F)=NC2 | 2.8 nM | 1.1 mg/kg | > 400 mg/kg | 5.1 mg/kg | –
Oc1ncc2c(n1)-c1ccc(Cl)cc1C(c1ccccc1F)=NC2 | 9.6 nM | 6.3 mg/kg | > 400 mg/kg | 29 mg/kg | –
Sc1ncc2c(n1)-c1ccc(Cl)cc1C(c1ccccc1Cl)=NC2 | 270 nM | 18 mg/kg | > 400 mg/kg | 214 mg/kg | –
O=C(O)Cc1ncc2c(n1)-c1ccc(Cl)cc1C(c1ccccc1F)=NC2 | 9.6 nM | 12 mg/kg | > 400 mg/kg | – | ED50 (Mus musculus [11]): 30 mg/kg
CC(C)c1ncc2c(n1)-c1ccc(Cl)cc1C(c1ccccc1Cl)=NC2 | 25 nM | 3.8 mg/kg | > 400 mg/kg | 21 mg/kg | –
Nc1ncc2c(n1)-c1ccc(Cl)cc1C(c1ccccc1)=NC2 | 17 nM | 4.9 mg/kg | > 400 mg/kg | 19 mg/kg | –
Cc1ncc2c(n1)-c1ccc(Cl)cc1C(c1ccccc1Cl)=NC2 | 9.2 nM | 0.74 mg/kg | > 400 mg/kg | 7.2 mg/kg | –
CCOC(=O)Cc1ncc2c(n1)-c1ccc(Cl)cc1C(c1ccccc1F)=NC2 | 20 nM | 13 mg/kg | – | > 200 mg/kg | –
CN(C)c1ncc2c(n1)-c1ccc(Cl)cc1C(c1ccccc1F)=NC2 | 8.2 nM | 1.1 mg/kg | > 400 mg/kg | 2.2 mg/kg | –
CN1C(=O)CN=C(c2ccccc2)c2cc(Cl)ccc21 [DIAZEPAM] | – | 1.4 mg/kg | > 25 mg/kg | 3.2 mg/kg | minimal effective dose (Felis catus [12]): 0.2 mg/kg; minimal effective dose (Monkey [6]): 0.31 mg/kg; HED (Monkey [7]): 20 mg/kg; ED50 (Mus musculus [13]): 0.97 mg/kg; DUR (Rattus norvegicus [9]): 20 mg/kg; minimal effective dose (Rattus norvegicus [10]): 1.25 mg/kg
